What was measured:
[1] = Solubility test in pure water; assay type: physicochemical
Procedure: The following test protocol was used for the solubility tests of the compounds of the present invention:
1). The compounds to be tested were precisely weighed respectively, and formulated to a corresponding concentration (l mg/mL or 10 mg/mL) by adding a corresponding volume of pure water vortically shook for 1 minute every 3 minutes for 15 minutes to observe the dissolution, and then the dissolution was observed again after standing for 1 hour. 2). 0.2 mL of 1 mg/mL compound or sodium salt thereof was took, diluted to 0.1 mg/mL respectively by adding 1.8 mL water, vortically shook for 5 minutes to observe the dissolution, and then the dissolution was observed again after standing for 1 hour. 3). 1 mL of 1 mg/mL compound or sodium salt thereof was took, diluted to 0.5 mg/mL by adding 1 mL water, vortically shook for 5 minutes to observe the dissolution, and then the dissolution was observed again after standing for 1 hour.

platelets [2] = assay: Platelet toxicity test in mice (platelet count); assay type: in vivo; conditions: mice, 0.5 mg/kg single intraperitoneal injection, blood at 6 hours, FIG. 1
Procedure: In this test example, C57 mice were chosen to detect the effect of the target compounds on platelets.
7 to 8 weeks old […] mice were randomly divided into vehicle group and compound group. The test compound (0.5 mg/kg) or blank vehicle was administrated via single intraperitoneal injection. Blood was collected from the retroorbital venous plexus of the mice at 6 hours, and placed in a blood routine tube containing anticoagulant EDTA-K2. After shaking gently, the blood physiological indicators were measured using a hematology analyzer, with the platelet count as the target parameter for this platelet toxicity test.

senescent cells = assay: Senescent cell killing, CellTiter-Glo cell viability; assay type: cell-based, human, mouse; conditions: activity of killing senescent cells; cell type not specified
Description: In this test example, human non-small cell lung cancer cell line (A549 cells), human embryonic lung fibroblast cell line (IMR90 cells), human retinal pigment epithelial cells (RPE cells), mouse chondrocytes, and mouse skin fibroblasts were selected. The above cells were induced by etoposide ([…]) to obtain their senescent cells. The effect of the target compounds on the viability of normal and senescent cells above was examined, thus assessing the specific killing effect of the compounds on senescent cells above.
Briefly, senescent and normal cells above were selected and plated separately (96-well plates). […] 2A to 2E.

[3] = rats; cited from earlier work
[4] = cited from earlier work
platelets [5] = conditions: under in vivo conditions; cited from earlier work

Q: Which results are given for `Cc1c(-c2ccc(N3CCc4cccc(C(=O)Nc5nc6ccccc6s5)c4C3)nc2C(=O)O)cnn1CC12CC3CC(CC(C3)C1)C2` [Compound A-1331852]?
A: During shaking ([1]; formulated concentration 0.10 mg/mL in pure water): Visible solute particles; During shaking ([1]; formulated concentration 1 mg/mL in pure water): Visible solute particles; platelet toxicity (platelet count) (platelets [2]): severe platelet toxicity; IC50 (senescent cells): 0.2 to 1 µM; oral bioavailability [3]: about 11%; solubility in water [4]: low solubility in water; platelet toxicity (platelets [5]): significant platelet toxicity
